# According to US20060046968A1, “Prodrug substituted benzoxazoles as estrogenic agents” (priority 2004, published 2006):
# Tests used:
# [1] = system: Lewis rats; experiment: Lewis rat adjuvant-induced arthritis, treatment protocol: joint score (maximal score per day 12); type: in vivo; details: s.c. daily, begun Day 8 after adjuvant
# [2] = system: Female Mongolian gerbils; experiment: Transient global ischemia in the Mongolian gerbil: neurogranin mRNA in hippocampus; type: in vivo; details: gerbil hippocampus after 5 min global ischemia; s.c. daily
# Method: Transient global ischemia in the Mongolian gerbil. The effect of test compounds on preventing or treating brain injury in response to oxygen deprivation/reperfusion were measured using the following test procedure.
# Female Mongolian gerbils (60-80 g; Charles River Laboratories, Kingston, N.Y.) were housed in the Wyeth-Ayerst animal care facility Association for Assessment and Acreditation of Laboratory Animal Care (AAALAC) certified with a 12-hour light, 12-hour dark photoperiod and free access to tap water and a low-estrogen casein diet (Purina®; Richmond, Ind.). After acclimation (3-5 days), gerbils were anesthetized with isoflurane (2-3% mixture with O2), ovariectomized (Day 0). […] On Day 6, gerbils (n=4-5/group) were anesthetized with isoflurane, the common carotid arteries visualized via a mid-line neck incision and both arteries simultaneously occluded for 5 minutes with non-traumatic micro aneurysm clips. […]
# The degree of neuronal protection was evaluated by in situ hybridization analysis of neurogranin mRNA. […]
# Neurogranin mRNA was selected for these studies because it is highly expressed in the hippocampal neurons including CA1, but absent in glia and other cell types present in this brain region. […] The results from 6 sections (40 μm apart) per animal were averaged and statistically evaluated. […]
compound,measurement,setting,value
"C=Cc1cc(O)cc2nc(-c3ccc(O)c(F)c3)oc12 [Example 24, 2-(3-FLUORO-4-HYDROXYPH ENYL)-7-VI NYL-1,3-BENZOXAZOL-5-OL]",Joint inflammation score,[1]; table Day 1,11.33
same,Joint inflammation score,[1]; table Day 2,11.15
same,Joint inflammation score,[1]; table Day 3,11.33
same,Joint inflammation score,[1]; table Day 4,9.50
same,Joint inflammation score,[1]; table Day 5,8.00
same,Joint inflammation score,[1]; table Day 6,7.00
same,Joint inflammation score,[1]; table Day 7,5.83
same,Joint inflammation score,[1]; table Day 8,4.83
same,Joint inflammation score,[1]; table Day 9,3.50
same,Joint inflammation score,[1]; table Day 10,3.83
same,Joint inflammation score,[1]; table Day 11,3.83
same,Joint inflammation score,[1]; table Day 12,3.83
same,Joint inflammation score,[1]; table Day 13,3.16
same,Joint inflammation score,[1]; table Day 14,3.16
same,Joint inflammation score,[1]; table Day 15,2.83
same,Joint inflammation score,[1]; table Day 16,2.83
same,Joint inflammation score,[1]; table Day 17,2.00
same,Neurogranin mRNA (mean ± stdev),[2],0.0 arbitrary units
